Experimental data as given in US20260166039A1 (SCHRÖDINGER, INC., priority 2022, published 2026).
Like-named read-outs stand apart in the source and are kept apart here.

Columns and labels:
[1] = system: phosphorylation of Cdc2 Y15 (Wee1 substrate) in A427 cells; assay: Phosphorylated Cdc2 MSD Electrochemiluminescence Assay; format: cell-based; conditions: Homo sapiens
In short: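 Read-out: percent residual phospho-Cdc2 Y15 relative to DMSO and positive-control Wee1 inhibitor, measured by MSD electrochemiluminescence capture/detection antibody assay in cell lysates. A427 cells received duplicate 3-fold compound dilution series 20 h post-seeding, with 6 h total incubation at 37 °C.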

[2] = target: T1, Wee1 kinase domain (Homo sapiens, UniProt P30291); assay: Wee1 Kinase Biochemical Assay (ADP-Glo); conditions: 15 uM ATP
T1 construct: Wee1 kinase domain was purchased from Carna (catalog #05-177); purchased Carna 05-177
In short: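 Compounds tested against 1 nM Wee1 kinase domain in Tris buffer containing 20 mM MgCl2, BSA and 2 mM DTT, with 15 uM ATP and poly(Lys,Tyr) substrate for 4 h at 25 °C. Luminescent ADP detection gave percent inhibition, normalized to DMSO and saturating inhibitor.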

[3] = A-427, class symbols, read-out: A427 pCDC2 MSD IC50
[4] = class symbols, 1 nM Wee1 enzyme, 4 hours at 25° C.

T1 sequence (P30291 299-569 limits assumed): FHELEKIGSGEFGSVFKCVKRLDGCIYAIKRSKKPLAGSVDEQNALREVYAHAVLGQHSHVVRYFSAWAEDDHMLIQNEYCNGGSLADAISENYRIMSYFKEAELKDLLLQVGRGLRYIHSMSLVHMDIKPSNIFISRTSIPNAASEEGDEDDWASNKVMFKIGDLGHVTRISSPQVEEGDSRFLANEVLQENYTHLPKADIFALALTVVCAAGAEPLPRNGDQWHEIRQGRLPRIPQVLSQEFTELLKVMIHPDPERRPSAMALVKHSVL

## Cc1cc(Nc2ncc3c(n2)N(c2cccc(N=S(C)(C)=O)n2)[C@@H]2CC(C)(C)OC[C@]32C)ccc1[C@H]1CCNC1 (single isomer, unassigned) [Example 149]
[1]; A-427, pCDC2 MSD
  IC50: 100 to 1000 nM
[2]; Wee1 kinase domain, ADP-Glo
  IC50: < 10 nM

## CN1CC[C@@H](Oc2ccc(Nc3ncc4c(n3)N(c3cccc(N5CCOC5=O)n3)[C@@H]3CC(C)(C)OC[C@]43C)cc2)C1 [Example 624, 3-(6-((4bR,8aR)-4b,7,7-trimethyl-2-((4-(((R)-1-methylpyrrolidin-3-yl)oxy)phenyl)amino)-4b,7,8,8a-tetrahydropyrano[3′,4′:4,5]pyrrolo[2,3-d]pyrimidin-9(5H)-yl)pyridin-2-yl)oxazolidin-2-one]
[1]; [3]
  IC50: 100 to 1000 nM
[2]; [4]
  IC50: < 10 nM

## CC1(C)C[C@H]2N(c3cccc(N=S(C)(C)=O)n3)c3nc(Nc4ccn([C@@H]5CCOC5)c(=O)c4)ncc3[C@@]2(C)CO1 (single isomer, unassigned) [Example 375]
[1]; A-427, pCDC2 MSD
  IC50: 100 to 1000 nM
[2]; Wee1 kinase domain, ADP-Glo
  IC50: < 10 nM

## CN1CCC[C@@H]1c1cccc(N2c3nc(Nc4ccn(C5CCOCC5)c(=O)c4)ncc3[C@@]3(C)COC(C)(C)C[C@@H]23)n1 (single isomer, unassigned) [Example 395]
[1]; A-427, pCDC2 MSD
  IC50: 100 to 1000 nM
[2]; Wee1 kinase domain, ADP-Glo
  IC50: < 10 nM

## CC1(C)C[C@H]2N(c3cccc(N=S(C)(C)=O)n3)c3nc(Nc4ccc([C@H]5CCCN5)nc4)ncc3[C@@]2(C)CO1 (single isomer, unassigned) [Example 212]
[1]; A-427, pCDC2 MSD
  IC50: 100 to 1000 nM
[2]; Wee1 kinase domain, ADP-Glo
  IC50: < 10 nM

## C[C@H]1CCC(=O)N1c1cccc(N2c3nc(Nc4ccc(C5CN(C)C5)cc4)ncc3[C@@]3(C)COC(C)(C)C[C@@H]23)n1 (single isomer, unassigned) [Example 727]
[1]; [3]
  IC50: < 100 nM
[2]; [4]
  IC50: < 10 nM

## CNCc1cccc(N2c3nc(Nc4ccc([C@H]5CCOC5)cc4)ncc3[C@@]3(C)COC(C)(C)C[C@@H]23)n1 (single isomer, unassigned) [Example 40]
[1]; A-427, pCDC2 MSD
  IC50: < 100 nM
[2]; Wee1 kinase domain, ADP-Glo
  IC50: < 10 nM

## CC1(C)C[C@H]2N(c3cccc(N=S(C)(C)=O)n3)c3nc(Nc4cncc(F)c4)ncc3[C@@]2(C)CO1 (single isomer, unassigned) [Example 369]
[1]; A-427, pCDC2 MSD
  IC50: 100 to 1000 nM
[2]; Wee1 kinase domain, ADP-Glo
  IC50: < 10 nM

## C[C@H]1COC(=O)N1c1cccc(N2c3nc(Nc4ccc(N5CCCN(C)CC5)cc4)ncc3[C@@]3(C)COC(C)(C)C[C@@H]23)n1 (single isomer, unassigned) [Example 299]
[1]; A-427, pCDC2 MSD
  IC50: 100 to 1000 nM
[2]; Wee1 kinase domain, ADP-Glo
  IC50: < 10 nM

## CNCc1cccc(N2c3nc(Nc4ccc5c(c4)C(=O)N(C)C5)ncc3[C@@]3(C)COC(C)(C)C[C@@H]23)n1 (single isomer, unassigned) [Example 32]
[1]; A-427, pCDC2 MSD
  IC50: 100 to 1000 nM
[2]; Wee1 kinase domain, ADP-Glo
  IC50: < 10 nM

## CN1C[C@@H]2C[C@H]1CN2c1ccc(Nc2ncc3c(n2)N(c2cccc(N4CCCC4=O)n2)[C@@H]2CC(C)(C)OC[C@]32C)cc1 [Example 629, 1-(6-((4bR,8aR)-4b,7,7-trimethyl-2-((4-((1S,4S)-5-methyl-2,5-diazabicyclo[2.2.1]heptan-2-yl)phenyl)amino)-4b,7,8,8a-tetrahydropyrano[3′,4′:4,5]pyrrolo[2,3-d]pyrimidin-9(5H)-yl)pyridin-2-yl)pyrrolidin-2-one]
[1]; [3]
  IC50: 100 to 1000 nM
[2]; [4]
  IC50: < 10 nM

## CN1CC[C@H]2CN(c3ccc(Nc4ncc5c(n4)N(c4cccc(C(C)(C)O)n4)[C@@H]4CC(C)(C)OC[C@]54C)cc3)C[C@H]21 (single isomer, unassigned) [Example 439]
[1]; [3]
  IC50: 100 to 1000 nM
[2]; [4]
  IC50: < 10 nM

## CC1(C)C[C@H]2N(c3ccc4c(n3)CCNC4)c3nc(Nc4ccc(N5CCOCC5)cc4)ncc3[C@@]2(C)CO1 (single isomer, unassigned) [Example 562]
[1]; [3]
  IC50: 100 to 1000 nM
[2]; [4]
  IC50: < 10 nM

## CNCc1cccc(N2c3nc(Nc4ccc(N5CCC(F)(F)CC5)cc4)ncc3[C@@]3(C)COC(C)(C)C[C@@H]23)n1 (single isomer, unassigned) [Example 16]
[1]; A-427, pCDC2 MSD
  IC50: 100 to 1000 nM
[2]; Wee1 kinase domain, ADP-Glo
  IC50: < 10 nM

## CC1(C)C[C@H]2N(c3ccc4c(n3)[C@](C)(N)CC4)c3nc(Nc4ccc(N5CCOCC5)cc4)ncc3[C@@]2(C)CO1 (single isomer, unassigned) [Example 564]
[1]; [3]
  IC50: < 100 nM
[2]; [4]
  IC50: < 10 nM

## CN1CCN(c2ccc(Nc3ncc4c(n3)N(c3cccc(C5CC5)n3)[C@@H]3CC(C)(C)OC[C@]43C)cc2)CC1 (single isomer, unassigned) [Example 774]
[1]; [3]
  IC50: 100 to 1000 nM
[2]; [4]
  IC50: < 10 nM

## CN=[S@](C)(=O)c1cccc(N2c3nc(Nc4ccc(C5CCN(C)CC5)cc4)ncc3[C@@]3(C)COC(C)(C)C[C@@H]23)n1 (single isomer, unassigned) [Example 751]
[1]; [3]
  IC50: 100 to 1000 nM
[2]; [4]
  IC50: < 10 nM

## Cc1cc(Nc2ncc3c(n2)N(c2cccc(N4CCCC4=O)n2)[C@@H]2CC(C)(C)OC[C@]32C)ccc1N1C[C@H]2C[C@@H]1CN2C [Example 658, 1-(6-((4bR,8aR)-4b,7,7-trimethyl-2-((3-methyl-4-((1R,4R)-5-methyl-2,5-diazabicyclo[2.2.1]heptan-2-yl)phenyl)amino)-4b,7,8,8a-tetrahydropyrano[3′,4′:4,5]pyrrolo[2,3-d]pyrimidin-9(5H)-yl)pyridin-2-yl)pyrrolidin-2-one]
[1]; [3]
  IC50: 100 to 1000 nM
[2]; [4]
  IC50: < 10 nM

## CN1C[C@H]2C[C@@H]1CN2c1ccc(Nc2ncc3c(n2)N(c2cccc(C(C)(C)O)n2)[C@@H]2CC(C)(C)OC[C@]32C)cc1 (single isomer, unassigned) [Example 413]
[1]; [3]
  IC50: 100 to 1000 nM
[2]; [4]
  IC50: < 10 nM

## CNCc1cccc(N2c3nc(Nc4ccc(N5C6CCC5COC6)cc4)ncc3[C@]3(C)COC(C)(C)C[C@H]23)n1 (single isomer, unassigned) [Example 88]
[1]; A-427, pCDC2 MSD
  IC50: 100 to 1000 nM
[2]; Wee1 kinase domain, ADP-Glo
  IC50: < 10 nM

## CC1(C)C[C@H]2N(c3cccc(N=S(C)(C)=O)n3)c3nc(Nc4ccn5ccnc5c4)ncc3[C@@]2(C)CO1 (single isomer, unassigned) [Example 379]
[1]; A-427, pCDC2 MSD
  IC50: 100 to 1000 nM
[2]; Wee1 kinase domain, ADP-Glo
  IC50: < 10 nM

## CNCc1cccc(N2c3nc(Nc4ccc(C5(C)COC5)cc4)ncc3[C@]3(C)COC(C)(C)C[C@H]23)n1 (single isomer, unassigned) [Example 82]
[1]; A-427, pCDC2 MSD
  IC50: 100 to 1000 nM
[2]; Wee1 kinase domain, ADP-Glo
  IC50: < 10 nM

## Cn1cc(C(=O)Nc2ncc3c(n2)N(c2cccc(N=S(C)(C)=O)n2)[C@@H]2CC(C)(C)OC[C@]32C)cn1 (single isomer, unassigned) [Example 408]
[1]; [3]
  IC50: 1000 to 10000 nM
[2]; [4]
  IC50: < 10 nM

## CN=[S@@](C)(=O)c1cccc(N2c3nc(Nc4ccc(C5CCN(C)CC5)cc4)ncc3[C@@]3(C)COC(C)(C)C[C@@H]23)n1 (single isomer, unassigned) [Example 752]
[1]; [3]
  IC50: 100 to 1000 nM
[2]; [4]
  IC50: < 10 nM

## CN1CCN(c2ccc(Nc3ncc4c(n3)N(c3ccn(C)n3)[C@@H]3CC(C)(C)OC[C@]43C)cc2)CC1 (single isomer, unassigned) [Example 717]
[1]; [3]
  IC50: 100 to 1000 nM
[2]; [4]
  IC50: < 10 nM

## C[C@H]1COC(=O)N1c1cccc(N2c3nc(Nc4ccc(OC5CCNCC5)nc4)ncc3[C@@]3(C)COC(C)(C)C[C@@H]23)n1 (single isomer, unassigned) [Example 325]
[1]; A-427, pCDC2 MSD
  IC50: 100 to 1000 nM
[2]; Wee1 kinase domain, ADP-Glo
  IC50: < 10 nM

## C[C@H]1COC(=O)N1c1cccc(N2c3nc(Nc4ccc(C5(C)COC5)cc4)ncc3[C@@]3(C)COC(C)(C)C[C@@H]23)n1 (single isomer, unassigned) [Example 303]
[1]; A-427, pCDC2 MSD
  IC50: 100 to 1000 nM
[2]; Wee1 kinase domain, ADP-Glo
  IC50: < 10 nM

## CN=[S@](C)(=O)c1cccc(N2c3nc(Nc4ccc(N5CC6(CN(C)C6)C5)cc4)ncc3[C@@]3(C)COC(C)(C)C[C@@H]23)n1 [Example 770, (R)-methyl(methylimino)(6-((4bR,8aR)-4b,7,7-trimethyl-2-((4-(6-methyl-2,6-diazaspiro[3.3]heptan-2-yl)phenyl)amino)-4b,7,8,8a-tetrahydropyrano[3′,4′:4,5]pyrrolo[2,3-d]pyrimidin-9(5H)-yl)pyridin-2-yl)-16-sulfanone]
[1]; [3]
  IC50: 100 to 1000 nM
[2]; [4]
  IC50: < 10 nM

## C[C@H]1COC(=O)N1c1cccc(N2c3nc(Nc4ccc(N5C[C@@H]6C[C@H]5CN6C)cc4)ncc3[C@@]3(C)COC(C)(C)C[C@@H]23)n1 (single isomer, unassigned) [Example 245]
[1]; A-427, pCDC2 MSD
  IC50: 100 to 1000 nM
[2]; Wee1 kinase domain, ADP-Glo
  IC50: < 10 nM

## CN1C[C@H]2C[C@@H]1CN2c1ccc(Nc2ncc3c(n2)N(c2cccc(N4CCCC4=O)n2)[C@@H]2CC(C)(C)OC[C@]32C)cc1F [Example 638, 1-(6-((4bR,8aR)-2-((3-fluoro-4-((1R,4R)-5-methyl-2,5-diazabicyclo[2.2.1]heptan-2-yl)phenyl)amino)-4b,7,7-trimethyl-4b,7,8,8a-tetrahydropyrano[3′,4′:4,5]pyrrolo[2,3-d]pyrimidin-9(5H)-yl)pyridin-2-yl)pyrrolidin-2-one]
[1]; [3]
  IC50: 100 to 1000 nM
[2]; [4]
  IC50: < 10 nM

## CN1CCC(c2cc(Nc3ncc4c(n3)N(c3cccc(N=S(C)(C)=O)n3)[C@@H]3CC(C)(C)OC[C@]43C)on2)CC1 (single isomer, unassigned) [Example 204]
[1]; A-427, pCDC2 MSD
  IC50: 100 to 1000 nM
[2]; Wee1 kinase domain, ADP-Glo
  IC50: < 10 nM

## CC1(C)CC2N(c3cccc(N=S(C)(C)=O)n3)c3nc(Nc4ccc(N5CCOCC5)cc4)ncc3C2(C)CO1 (single isomer, unassigned) [Example 496]
[1]; [3]
  IC50: 100 to 1000 nM
[2]; [4]
  IC50: < 10 nM

## Cc1cc(Nc2ncc3c(n2)N(c2cccc(N4C(=O)OC[C@@H]4C)n2)[C@@H]2CC(C)(C)OC[C@]32C)ccc1N1C[C@H]2C[C@@H]1CN2C (single isomer, unassigned) [Example 289]
[1]; A-427, pCDC2 MSD
  IC50: 100 to 1000 nM
[2]; Wee1 kinase domain, ADP-Glo
  IC50: < 10 nM

## COc1ccc(Nc2ncc3c(n2)N(c2cccc(N=S(C)(C)=O)n2)[C@@H]2CC(C)(C)OC[C@]32C)nn1 (single isomer, unassigned) [Example 372]
[1]; A-427, pCDC2 MSD
  IC50: 100 to 1000 nM
[2]; Wee1 kinase domain, ADP-Glo
  IC50: < 10 nM
